Here are results for 12 compounds from patent US20230051589A1, “COMPOUNDS AND COMPOSITIONS FOR TREATING CONDITIONS ASSOCIATED WITH NLRP ACTIVITY” (Novartis AG, priority 2018, published 2023).

For the test, the system named is IL-1β production in PMA-differentiated THP-1 cells. The test can be described thus: IL-1β production in PMA-differentiated THP-1 cells stimulated with gramicidin (hTHP-1 assay, 2% fetal bovine serum; Procedures 1-3). In kind it is cell-based, human. How it is done: The following protocol is suitable for testing the activity of the compounds disclosed herein.
Procedure 1: IL-1β Production in PMA-Differentiated THP-1 Cells Stimulated with Gramicidin.
THP-1 cells were purchased from the American Type Culture Collection and sub-cultured according to instructions from the supplier. Cells were cultured in complete RPMI 1640 (containing 10% heat inactivated FBS, penicillin (100 units/ml) and streptomycin (100 μg/ml)), and maintained in log phase prior to experimental setup. Prior to the experiment, compounds were dissolved in dimethyl sulfoxide (DMSO) to generate a 30 mM stock. The compound stock was first pre-diluted in DMSO to 3, 0.34, 0.042 and 0.0083 mM intermediate concentrations and subsequently spotted using Echo550 liquid handler into an empty 384-well assay plate to achieve desired final concentration (e.g. 100, 33, 11, 3.7, 1.2, 0.41, 0.14, 0.046, 0.015, 0.0051, 0.0017 μM). DMSO was backfilled in the plate to achieve a final DMSO assay concentration of 0.37%. The plate was then sealed and stored at room temperature until required.
THP-1 cells were treated with PMA (Phorbol 12-myristate 13-acetate) (20 ng/ml) for 16-18 hours. On the day of the experiment the media was removed and adherent cells were detached with trypsin for 5 minutes. Cells were then harvested, washed with complete RPMI 1640, spun down, and resuspended in RPMI 1640 (containing 2% heat inactivated FBS, penicillin (100 units/ml) and streptomycin (100 μg/ml). The cells were plated in the 384-well assay plate containing the spotted compounds at a density of 50,000 cells/well (final assay volume 50 μl). Cells were incubated with compounds for 1 hour and then stimulated with gramicidin (5 μM) (Enzo) for 2 hours. Plates were then centrifuged at 340 g for 5 min. Cell free supernatant (40 μL) was collected using a 96-channel PlateMaster (Gilson) and the production of IL-1β was evaluated by HTRF (cisbio). The plates were incubated for 18 h at 4° C. and read using the preset HTRF program (donor emission at 620 nm, acceptor emission at 668 nm) of the SpectraMax i3x spectrophotometer (Molecular Devices, software SoftMax 6). A vehicle only control and a dose titration of CRID3 (100-0.0017 μM) were run concurrently with each experiment.
Procedure 2: IL-1β Production in PMA-Differentiated THP-1 Cells Stimulated with Gramicidin.
THP-1 cells were purchased from the American Type Culture Collection and sub-cultured according to instructions from the supplier. Prior to experiments, cells were cultured in complete RPMI 1640 (containing 10% heat inactivated FBS, penicillin (100 units/ml) and streptomycin (100 μg/ml)), and maintained in log phase prior to experimental setup. Prior to the experiment THP-1 were treated with PMA (Phorbol 12-myristate 13-acetate) (20 ng/ml) for 16-18 hours. Compounds were dissolved in dimethyl sulfoxide (DMSO) to generate a 30 mM stock. On the day of the experiment the media was removed and adherent cells were detached with trypsin for 5 minutes. Cells were then harvested, washed with complete RPMI 1640, spun down, resuspended in RPMI 1640 (containing 2% heat inactivated FBS, penicillin (100 units/ml) and streptomycin (100 μg/ml) . The cells were plated in a 384-well plate at a density of 50,000 cells/well (final assay volume 50 μl). Compounds were first dissolved in assay medium to obtain a 5× top concentration of 500 μM. 10 step dilutions (1:3) were then undertaken in assay medium containing 1.67% DMSO. 5× compound solutions were added to the culture medium to achieve desired final concentration (e.g. 100, 33, 11, 3.7, 1.2, 0.41, 0.14, 0.046, 0.015, 0.0051, 0.0017 μM). Final DMSO concentration was at 0.37%. Cells were incubated with compounds for 1 hour and then stimulated with gramicidin (5 μM) (Enzo) for 2 hours. Plates were then centrifuged at 340 g for 5 min. Cell free supernatant (40 μL) was collected using a 96-channel PlateMaster (Gilson) and the production of IL-1β was evaluated by HTRF (cisbio). […]

The mark [1] stands for this setting: Table B1, hTHP-1 assay containing 2% fetal bovine serum, gramicidin stimulation, IL-1β readout, read-out: hTHP-1 IC50 (average).
Where [2] appears, read: hTHP-1 assay containing 2% fetal bovine serum, Table B2, class symbols, read-out: IC50.
[3] abbreviates: Homo sapiens, THP-1, hTHP-1 assay containing 2% fetal bovine serum, Table B2, class symbols, read-out: IC50.

Like-named read-outs stand apart in the source and are kept apart here.

`CC(C)c1ccc(S(N)(=O)=NC(=O)Nc2c3c(cc4c2CCC4)CCC3)cn1` (single isomer, unassigned) [Example 402, (S) or (R)-N′-((1,2,3,5,6,7-hexahydro-s-indacen-4-yl)carbamoyl)-6-isopropyl-pyridine-3-sulfonimidamide]: the IC50 under setting [1] was in the range of 1000 to 5000 nM. As to `NCc1ccc(S(N)(=O)=NC(=O)Nc2c3c(cc4c2CCC4)CCC3)cc1` (single isomer, unassigned) [Example 411, (R) or (S)-4-(aminomethyl)-N′-((1,2,3,5,6,7-hexahydro-5-indacen-4-yl)carbamoyl)-benzenesulfonimidamide], under setting [1], the IC50 lay within 1000 to 5000 nM. On to `CN(C)Cc1ccc(S(N)(=O)=NC(=O)Nc2c3c(cc4c2CCC4)CCC3)nc1` (single isomer, unassigned) [Example 413, (R) or (S)-5-((dimethyl-amino)methyl)-N′-((1,2,3,5,6,7-hexahydro-s-indacen-4-yl)carbamoyl)-pyridine-2-sulfonimid-amide], for which the IC50 under setting [1] lay in the range of 200 to 1000 nM. Consider `CC(C)(O)c1ncc(S(N)(=O)=NC(=O)Nc2cc3c(c4c2CCC4)CCC3)s1` (single isomer, unassigned) [Example 419, (R) or (S)-N′-((1,2,3,6,7,8-hexahydro-as-indacen-4-yl)carbamoyl)-2-(2-hydroxypropan-2-yl)thia-zole-5-sulfonimidamide], for which the IC50 under setting [1] lay within 40 to 200 nM. Turning to `[2H]C1([2H])CCc2cc3c(c(NC(=O)N=S(N)(=O)c4cnc(C(C)(C)O)s4)c21)C([2H])([2H])CC3` (single isomer, unassigned) [Example 421, (R) or (S)-N′-((1,2,3,5,6,7-hexahydro-s-indacen-4-yl-3,3,5,5-d4)carbamoyl)-2-(2-hydroxypropan-2-yl)-thiazole-5-sulfonimidamide], the IC50 under setting [1] lay in the range of 8 to 40 nM.

`[2H]C1([2H])CCc2c1cc1c(c2NC(=O)N=S(N)(=O)c2cnc(C(C)(C)O)s2)CCC1([2H])[2H]` (single isomer, unassigned) [Example 423, (R) or (S)-N′-((1,2,3,5,6,7-hexahydro-s-indacen-4-yl-1,1,7,7-d4)carbamoyl)-2-(2-hydroxypropan-2-yl)-thiazole-5-sulfonimidamide]: under setting [1], the IC50 is 8 to 40 nM.

Turning to `CC(C)(O)c1cc(F)c(S(N)(=O)=NC(=O)Nc2c3c(cc4c2CC4)CCC3)s1` (single isomer, unassigned) [Example 432], under setting [2], the half-inhibitory concentration (IC50) was 8 to 40 nM. For the compound `CC(C)(O)c1cc(F)c(S(N)(=O)=NC(=O)Nc2c3c(cc4c2CC4)CCC3)s1` (single isomer, unassigned) [Example 433], the IC50 under setting [2] fell in the range of 200 to 1000 nM. `Cc1c(C2CC2)cc2c(c1NC(=O)N=[S@@](N)(=O)c1cc(C(C)(C)O)cs1)CCC2` (single isomer, unassigned) [Example 498, (R) or (S)-N′-((6-cyclopropyl-5-methyl-2,3-dihydro-1H-inden-4-yl)carbamoyl)-4-(2-hydroxyprepan-2-yl)thiophene-2-sulfonimidamide]: the IC50 under setting [2] fell in the range of 8 to 40 nM. For `N[S@](=O)(=NC(=O)Nc1c2c(cc3c1CCC3)CCC2)c1ccc(C2CCNC2)cc1F` (single isomer, unassigned) [Example 501, (S) or (R)-2-fluoro-N′-((1,2,3,5,6,7-hexahydro-s-indacen-4-yl)carbamoyl)-4-(pyrrolidin-3-yl)benzenesulfonimidamide], under setting [3], the IC50 fell in the range of 5000 to 30000 nM. For `N[S@@](=O)(=NC(=O)Nc1c2c(cc3c1CCC3)CCC2)c1ccc(C2CCNC2)cc1F` (single isomer, unassigned) [Example 502, (R) or (S)-2-fluoro-N′-((1,2,3,5,6,7-hexahydro-s-indacen-4-yl)carbamoyl)-4-(pyrrolidin-3-yl)benzenesulfonimidamide], the IC50 under setting [3] was 200 to 1000 nM. As for `NS(=O)(=NC(=O)Nc1c2c(cc3c1CCC3)CCC2)c1cnn2c1OC[C@H](O)C2` (single isomer, unassigned) [Example 515, (R,6R) or (S,6R)-N′-((1,2,3,5,6,7-hexahydro-s-indacen-4-yl)carbamoyl)-6-hydroxy-6,7-dihydro-5H-pyrazolo[5,1-b] [1,3]oxazine-3-sulfonimidamide], under setting [2], the half-maximal inhibitory concentration (IC50) lay within 40 to 200 nM.

Usually IC50 stands for the point on the concentration scale where inhibition reaches its midpoint.
